From ChEMBL document CHEMBL4425149, “Lead optimization of a pyrazolo[1,5-a]pyrimidin-7(4H)-one scaffold to identify potent, selective and orally bioavailable KDM5 inhibitors suitable for in vivo biological studies” (Bioorg Med Chem Lett, 2016)
Calls of active or inactive are those of the source. The rule behind the calls is not given here.

How the values were obtained:
[1] = biological target: Lysine-specific demethylase 5A (Homo sapiens, UniProt P29375); assay: Inhibition of KDM5A (unknown origin)
Lysine-specific demethylase 5A, sequence (P29375 whole entry): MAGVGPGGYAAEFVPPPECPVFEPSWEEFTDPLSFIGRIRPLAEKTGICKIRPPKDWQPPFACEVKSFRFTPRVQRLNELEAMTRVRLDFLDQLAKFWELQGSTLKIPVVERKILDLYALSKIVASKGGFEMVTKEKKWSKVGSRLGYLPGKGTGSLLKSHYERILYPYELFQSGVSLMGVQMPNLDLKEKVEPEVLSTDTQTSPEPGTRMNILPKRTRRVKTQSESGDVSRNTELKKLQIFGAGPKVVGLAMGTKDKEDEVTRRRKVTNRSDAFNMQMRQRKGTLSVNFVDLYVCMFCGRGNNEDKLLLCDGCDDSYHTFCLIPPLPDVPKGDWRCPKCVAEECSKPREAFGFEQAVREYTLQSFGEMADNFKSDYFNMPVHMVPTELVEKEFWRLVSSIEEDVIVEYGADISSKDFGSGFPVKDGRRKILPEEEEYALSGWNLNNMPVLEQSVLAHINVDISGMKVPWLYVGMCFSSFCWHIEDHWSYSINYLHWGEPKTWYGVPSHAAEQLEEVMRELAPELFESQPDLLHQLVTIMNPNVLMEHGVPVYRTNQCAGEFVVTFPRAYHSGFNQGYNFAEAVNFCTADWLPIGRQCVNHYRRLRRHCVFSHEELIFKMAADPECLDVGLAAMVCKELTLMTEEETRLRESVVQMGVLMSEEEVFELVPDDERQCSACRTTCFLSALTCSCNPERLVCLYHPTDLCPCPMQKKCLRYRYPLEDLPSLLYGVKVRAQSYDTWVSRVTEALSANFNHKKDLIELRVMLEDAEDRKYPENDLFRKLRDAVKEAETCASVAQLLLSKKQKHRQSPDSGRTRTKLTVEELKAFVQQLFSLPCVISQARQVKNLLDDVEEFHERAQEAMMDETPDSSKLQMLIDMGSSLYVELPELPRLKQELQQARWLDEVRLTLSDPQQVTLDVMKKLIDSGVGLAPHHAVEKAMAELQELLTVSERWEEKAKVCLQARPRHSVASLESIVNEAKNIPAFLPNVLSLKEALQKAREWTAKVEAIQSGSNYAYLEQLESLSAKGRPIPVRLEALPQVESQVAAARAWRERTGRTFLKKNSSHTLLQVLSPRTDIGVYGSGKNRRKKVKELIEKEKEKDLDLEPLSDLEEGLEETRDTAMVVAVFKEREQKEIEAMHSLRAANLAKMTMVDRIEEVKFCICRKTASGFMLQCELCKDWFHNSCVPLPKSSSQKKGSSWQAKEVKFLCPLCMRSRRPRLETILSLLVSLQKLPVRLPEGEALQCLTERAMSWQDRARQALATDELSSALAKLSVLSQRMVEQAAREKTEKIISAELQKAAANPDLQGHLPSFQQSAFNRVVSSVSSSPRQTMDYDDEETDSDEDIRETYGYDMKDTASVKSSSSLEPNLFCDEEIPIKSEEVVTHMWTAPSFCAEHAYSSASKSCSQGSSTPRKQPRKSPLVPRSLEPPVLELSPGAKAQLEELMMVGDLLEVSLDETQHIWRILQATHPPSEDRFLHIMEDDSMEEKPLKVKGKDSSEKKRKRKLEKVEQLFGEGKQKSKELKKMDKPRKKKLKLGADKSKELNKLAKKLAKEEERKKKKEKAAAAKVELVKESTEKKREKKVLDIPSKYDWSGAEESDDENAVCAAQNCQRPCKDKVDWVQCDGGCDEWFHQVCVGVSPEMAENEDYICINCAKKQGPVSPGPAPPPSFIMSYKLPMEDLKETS

[2] = Inhibition of KDM5 in human PC9 cells assessed as demethylation of H3K4Me3; format: cell-based; details: PC-9
[3] = Dissociation constant, pKa of the compound; format: physicochemical
[4] = Protein binding in human plasma; format: ADME, cell-free; details: read-out: PPB (converted)
[5] = Octanol-aqueous buffer distribution coefficient, log D of the compound at pH 7.4; format: physicochemical
[6] = Oral bioavailability in CD-1 mouse at 5 mg/kg; format: ADME, organism-based; details: in vivo
[7] = Clearance in CD-1 mouse plasma at 1 mg/kg, iv or 5 mg/kg, po; format: ADME, organism-based
[8] = Volume of distribution in CD-1 mouse at 1 mg/kg, iv or 5 mg/kg, po; format: ADME, organism-based; details: in vivo
[9] = Half life in CD-1 mouse at 1 mg/kg, iv or 5 mg/kg, po; format: ADME, organism-based; details: in vivo
[10] = Protein binding in mouse plasma; format: ADME, cell-free; details: read-out: PPB (converted)
[11] = biological target: Lysine-specific demethylase 3B (Homo sapiens) (UniProt Q7LBC6); assay: Inhibition of KDM3B (unknown origin)
[12] = biological target: Lysine-specific demethylase 5C (Homo sapiens, UniProt P41229); assay: Inhibition of KDM5C (unknown origin)
[13] = biological target: Lysine-specific demethylase 5B (Homo sapiens, UniProt Q9UGL1); assay: Inhibition of KDM5B (unknown origin)
Lysine-specific demethylase 5B, sequence (Q9UGL1 whole entry): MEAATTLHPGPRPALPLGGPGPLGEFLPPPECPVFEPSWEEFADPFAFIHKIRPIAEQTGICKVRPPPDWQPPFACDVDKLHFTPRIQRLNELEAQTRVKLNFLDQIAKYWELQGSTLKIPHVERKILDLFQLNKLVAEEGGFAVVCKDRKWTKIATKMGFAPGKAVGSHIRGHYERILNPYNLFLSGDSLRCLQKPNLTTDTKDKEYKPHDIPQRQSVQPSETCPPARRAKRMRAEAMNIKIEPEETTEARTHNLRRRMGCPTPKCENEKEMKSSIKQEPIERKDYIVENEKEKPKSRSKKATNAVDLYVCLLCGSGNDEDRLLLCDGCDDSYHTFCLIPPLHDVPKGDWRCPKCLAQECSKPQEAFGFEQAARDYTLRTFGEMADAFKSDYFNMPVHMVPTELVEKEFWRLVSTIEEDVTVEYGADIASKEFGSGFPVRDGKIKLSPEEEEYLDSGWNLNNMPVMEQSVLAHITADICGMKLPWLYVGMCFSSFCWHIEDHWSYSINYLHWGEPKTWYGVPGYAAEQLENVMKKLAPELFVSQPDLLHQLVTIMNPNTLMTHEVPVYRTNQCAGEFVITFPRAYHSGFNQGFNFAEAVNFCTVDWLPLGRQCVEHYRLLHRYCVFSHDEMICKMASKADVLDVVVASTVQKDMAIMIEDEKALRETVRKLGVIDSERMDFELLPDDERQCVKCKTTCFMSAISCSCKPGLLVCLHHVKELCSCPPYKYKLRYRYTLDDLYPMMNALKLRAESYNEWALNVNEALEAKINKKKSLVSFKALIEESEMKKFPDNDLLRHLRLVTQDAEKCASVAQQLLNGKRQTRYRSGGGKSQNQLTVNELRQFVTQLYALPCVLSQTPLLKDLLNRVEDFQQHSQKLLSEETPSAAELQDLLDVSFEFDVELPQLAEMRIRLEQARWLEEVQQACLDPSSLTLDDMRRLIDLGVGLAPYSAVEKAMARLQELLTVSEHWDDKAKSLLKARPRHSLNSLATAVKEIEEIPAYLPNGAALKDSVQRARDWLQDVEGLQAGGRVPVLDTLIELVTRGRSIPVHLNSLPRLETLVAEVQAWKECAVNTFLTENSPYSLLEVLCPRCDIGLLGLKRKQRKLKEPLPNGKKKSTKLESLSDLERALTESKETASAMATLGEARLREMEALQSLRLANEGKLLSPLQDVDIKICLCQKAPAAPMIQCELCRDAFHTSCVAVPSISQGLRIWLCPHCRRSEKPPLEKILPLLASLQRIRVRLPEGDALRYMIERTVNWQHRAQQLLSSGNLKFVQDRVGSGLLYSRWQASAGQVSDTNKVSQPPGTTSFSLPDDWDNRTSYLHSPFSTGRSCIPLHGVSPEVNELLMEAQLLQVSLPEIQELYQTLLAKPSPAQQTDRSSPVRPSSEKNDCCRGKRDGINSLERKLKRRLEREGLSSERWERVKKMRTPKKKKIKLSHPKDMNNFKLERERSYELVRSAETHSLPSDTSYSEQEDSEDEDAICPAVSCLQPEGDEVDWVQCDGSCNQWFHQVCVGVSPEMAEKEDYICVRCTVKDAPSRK

[14] = biological target: T1, Lysine-specific demethylase 2B (Homo sapiens) (UniProt Q8NHM5); assay: Inhibition of KDM2B (unknown origin)
T1 sequence (whole entry): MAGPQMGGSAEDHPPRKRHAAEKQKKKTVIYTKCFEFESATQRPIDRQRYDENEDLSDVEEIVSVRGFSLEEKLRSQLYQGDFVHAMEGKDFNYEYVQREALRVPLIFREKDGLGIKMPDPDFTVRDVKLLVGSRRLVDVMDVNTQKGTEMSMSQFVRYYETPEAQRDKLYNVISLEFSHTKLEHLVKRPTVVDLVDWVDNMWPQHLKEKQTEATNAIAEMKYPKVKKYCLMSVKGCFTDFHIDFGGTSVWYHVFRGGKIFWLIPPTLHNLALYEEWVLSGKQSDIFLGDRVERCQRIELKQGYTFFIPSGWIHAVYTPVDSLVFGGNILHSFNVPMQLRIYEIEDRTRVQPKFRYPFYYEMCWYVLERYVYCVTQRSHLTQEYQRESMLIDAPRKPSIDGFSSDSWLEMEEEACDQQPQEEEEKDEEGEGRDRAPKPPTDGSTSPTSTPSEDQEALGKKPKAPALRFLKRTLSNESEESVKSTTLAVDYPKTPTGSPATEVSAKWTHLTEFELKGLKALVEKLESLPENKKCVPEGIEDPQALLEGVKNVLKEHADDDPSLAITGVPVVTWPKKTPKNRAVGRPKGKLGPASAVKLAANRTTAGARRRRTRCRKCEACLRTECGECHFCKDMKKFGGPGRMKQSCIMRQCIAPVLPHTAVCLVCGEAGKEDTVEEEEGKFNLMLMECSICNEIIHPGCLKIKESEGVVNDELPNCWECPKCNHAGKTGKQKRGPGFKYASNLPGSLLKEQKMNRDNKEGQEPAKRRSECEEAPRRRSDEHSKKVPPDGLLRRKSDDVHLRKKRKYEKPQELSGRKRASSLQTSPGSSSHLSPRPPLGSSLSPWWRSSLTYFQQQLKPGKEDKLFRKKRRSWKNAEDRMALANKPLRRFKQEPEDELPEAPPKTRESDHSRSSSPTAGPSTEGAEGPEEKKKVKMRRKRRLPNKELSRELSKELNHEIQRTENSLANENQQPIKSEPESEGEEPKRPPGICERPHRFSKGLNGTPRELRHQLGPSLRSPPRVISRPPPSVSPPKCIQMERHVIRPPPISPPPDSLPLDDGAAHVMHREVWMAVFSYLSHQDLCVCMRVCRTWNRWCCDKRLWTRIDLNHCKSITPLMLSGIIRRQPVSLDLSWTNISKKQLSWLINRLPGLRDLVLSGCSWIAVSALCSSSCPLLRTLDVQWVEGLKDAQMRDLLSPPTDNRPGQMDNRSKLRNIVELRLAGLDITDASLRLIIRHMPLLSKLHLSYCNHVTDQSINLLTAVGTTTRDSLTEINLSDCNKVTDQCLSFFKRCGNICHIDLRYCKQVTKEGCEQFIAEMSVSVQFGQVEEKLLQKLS

[15] = Cmax in mouse at 50 mg/kg, po bid; format: ADME, organism-based; parameters: dose 50 mg/kg, route oral; details: in vivo
[16] = biological target: Histone lysine demethylase PHF8 (Homo sapiens) (UniProt Q9UPP1); assay: Inhibition of KDM7B (unknown origin)
Histone lysine demethylase PHF8 (Homo sapiens), sequence (Q9UPP1 whole entry): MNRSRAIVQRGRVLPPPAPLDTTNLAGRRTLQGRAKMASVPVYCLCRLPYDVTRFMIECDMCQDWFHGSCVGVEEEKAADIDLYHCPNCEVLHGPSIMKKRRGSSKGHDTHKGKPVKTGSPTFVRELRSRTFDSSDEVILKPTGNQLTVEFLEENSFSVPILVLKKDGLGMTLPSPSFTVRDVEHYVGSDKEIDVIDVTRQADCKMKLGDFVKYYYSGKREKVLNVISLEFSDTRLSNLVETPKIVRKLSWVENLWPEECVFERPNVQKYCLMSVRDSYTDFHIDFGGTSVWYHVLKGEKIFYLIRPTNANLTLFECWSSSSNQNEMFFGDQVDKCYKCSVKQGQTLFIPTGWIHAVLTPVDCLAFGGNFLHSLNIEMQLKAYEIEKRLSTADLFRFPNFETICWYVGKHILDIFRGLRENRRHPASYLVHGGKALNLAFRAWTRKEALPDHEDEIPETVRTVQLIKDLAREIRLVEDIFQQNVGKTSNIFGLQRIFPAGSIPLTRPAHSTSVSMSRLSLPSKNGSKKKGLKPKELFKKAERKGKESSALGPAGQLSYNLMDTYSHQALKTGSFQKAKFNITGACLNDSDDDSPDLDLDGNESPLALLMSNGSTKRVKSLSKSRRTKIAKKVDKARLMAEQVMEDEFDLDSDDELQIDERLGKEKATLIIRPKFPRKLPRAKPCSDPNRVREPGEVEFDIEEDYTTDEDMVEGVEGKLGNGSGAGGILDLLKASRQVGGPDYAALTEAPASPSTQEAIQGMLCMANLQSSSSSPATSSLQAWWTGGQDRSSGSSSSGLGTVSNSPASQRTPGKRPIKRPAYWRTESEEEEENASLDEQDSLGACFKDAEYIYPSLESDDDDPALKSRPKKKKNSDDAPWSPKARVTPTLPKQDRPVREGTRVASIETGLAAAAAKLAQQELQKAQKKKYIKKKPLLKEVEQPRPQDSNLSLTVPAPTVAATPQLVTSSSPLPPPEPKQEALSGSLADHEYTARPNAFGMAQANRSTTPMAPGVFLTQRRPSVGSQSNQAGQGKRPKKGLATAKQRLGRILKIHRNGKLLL

[17] = biological target: Lysine-specific demethylase 6A (Homo sapiens) (UniProt O15550); assay: Inhibition of KDM6A (unknown origin)
[18] = fCmax in mouse at 50 mg/kg, po bid; format: ADME, organism-based; details: in vivo
[19] = biological target: Lysine-specific histone demethylase 1A (Homo sapiens) (UniProt O60341); assay: Inhibition of KDM1A (unknown origin)
[20] = Dissociation constant, pKa of the compound at pH 7.4; format: physicochemical

IC50 [1] [nM]	EC50 [2] [nM]	SMILES	also measured
9.5	12100	CCc1[nH]c2c(C#N)cnn2c(=O)c1C(C)C	
20.4		CC(C)c1c(-c2ccc(Cl)cc2)[nH]c2c(C#N)cnn2c1=O	
27.5	> 30000	CC(C)c1c(Nc2ccccc2)[nH]c2c(C#N)cnn2c1=O	pKa [3]: 8.2
10.4	1800	COCCn1cc(-c2[nH]c3c(C#N)cnn3c(=O)c2C(C)C)cn1	fraction unbound [4]: 0.033; logD [5]: 0.4
13.1	> 30000	CC(C)c1c(CCc2ccccc2)[nH]c2c(C#N)cnn2c1=O	
	2300	CCn1cc(-c2[nH]c3c(C#N)cnn3c(=O)c2C(C)C)cn1	fraction unbound [4]: 0.005; logD [5]: 0.66
5.6	1700	CC(C)c1c(-c2cnn(-c3ccccc3)c2)[nH]c2c(C#N)cnn2c1=O	bioavailability [6]: 21.3%; fraction unbound [4]: 0.001; clearance [7]: 7.7 mL/min/kg; Vd [8]: 0.63 L/kg; logD [5]: 1.8; half-life [9]: 66 min
12.8	11300	C#CC(C)c1c(-c2ccccc2)[nH]c2c(C#N)cnn2c1=O (racemic)	
20.3		Cc1ccc(-c2[nH]c3c(C#N)cnn3c(=O)c2C(C)C)cc1	
11.9	> 30000	CC(C)c1c(Cc2ccccc2)[nH]c2c(C#N)cnn2c1=O	
	7500	CC(C)c1c(-c2cccc(C(F)(F)F)c2)[nH]c2c(C#N)cnn2c1=O	
	> 30000	CC(C)c1c(-c2cncnc2)[nH]c2c(C#N)cnn2c1=O	
18.2		CC(C)c1c(-c2ccc(C(F)(F)F)cc2)[nH]c2c(C#N)cnn2c1=O	
9.2	> 30000	N#Cc1cnn2c(=O)c(C3CCC3)c(-c3ccccc3)[nH]c12	
20.1		C=Cc1c(-c2ccccc2)[nH]c2c(C#N)cnn2c1=O	
28.3		CC(C)c1c[nH]c2c(C#N)cnn2c1=O	
15.5	16400	C=CC(C)c1c(-c2ccccc2)[nH]c2c(C#N)cnn2c1=O (racemic)	
7.9	1300	CC(C)c1c(-c2cnn(C3CC3)c2)[nH]c2c(C#N)cnn2c1=O	fraction unbound [4]: 0.008; logD [5]: 0.74
15.1	340	CC(C)c1c(-c2cnn(C(C)(C)C)c2)[nH]c2c(C#N)cnn2c1=O	bioavailability [6]: 100%; fraction unbound [10]: 0.025; inhibition [11]: inactive; IC50 [12]: 65.5 nM; IC50 [13]: 4.7 nM; fraction unbound [4]: 0.012; inhibition [14]: inactive; clearance [7]: 5 mL/min/kg; Cmax [15]: 206 µM; inhibition [16]: inactive; inhibition [17]: inactive; Vd [8]: 0.44 L/kg; logD [5]: 1.4; fCmax [18]: 5.2 µM; inhibition [19]: inactive; half-life [9]: 78 min
17.5		CC(C)c1c(/C=C/c2ccccc2)[nH]c2c(C#N)cnn2c1=O	

IC50 [1] [nM]	EC50 [2] [nM]	SMILES	also measured
11.2	870	CC(C)c1c(-c2cnn(C3CCC3)c2)[nH]c2c(C#N)cnn2c1=O	fraction unbound [4]: 0.004; logD [5]: 1.3
15.9	8300	CC(C)c1c(-c2cnn(C3COC3)c2)[nH]c2c(C#N)cnn2c1=O	fraction unbound [4]: 0.04; logD [5]: -0.1
10.1	2900	CC(C)c1c(-c2cnn(CCC#N)c2)[nH]c2c(C#N)cnn2c1=O	fraction unbound [4]: 0.066; logD [5]: -0.45
	28400	CCC(C)c1c(-c2ccccc2)[nH]c2c(C#N)cnn2c1=O (racemic)	
5.3	1200	CC(C)c1c(-c2cn[nH]c2)[nH]c2c(C#N)cnn2c1=O	fraction unbound [4]: 0.026
319		COC(=O)c1c(-c2ccccc2)[nH]c2c(C#N)cnn2c1=O	
13.3	2000	CC(C)c1c(-c2cnn(C)c2)[nH]c2c(C#N)cnn2c1=O	bioavailability [6]: 61.3%; fraction unbound [4]: 0.011; clearance [7]: 59.9 mL/min/kg; Vd [8]: 0.6 L/kg; logD [5]: 0.4; half-life [9]: 10.2 min
9.3	13800	Cc1[nH]c2c(C#N)cnn2c(=O)c1C(C)C	
21.1		C#CCc1c(-c2ccccc2)[nH]c2c(C#N)cnn2c1=O	
13.8	440	CC(C)c1c(-c2cnn(C(C)C)c2)[nH]c2c(C#N)cnn2c1=O	bioavailability [6]: 69.5%; fraction unbound [4]: 0.013; clearance [7]: 15.7 mL/min/kg; Vd [8]: 0.54 L/kg; logD [5]: 0.93; half-life [9]: 36.6 min
63.2		CC(C)c1c(N2CCCCC2)[nH]c2c(C#N)cnn2c1=O	
76.6		CC(C)c1c(N(C)C)[nH]c2c(C#N)cnn2c1=O	
35.9		CC(C)c1c(-c2ccc(OC(F)(F)F)cc2)[nH]c2c(C#N)cnn2c1=O	
18	> 30000	CC(C)c1c(Oc2ccccc2)[nH]c2c(C#N)cnn2c1=O	pKa [3]: 9.8
6.2	6700	CC(C)c1c(-c2ccco2)[nH]c2c(C#N)cnn2c1=O	
29		CC(CO)c1c(-c2ccccc2)[nH]c2c(C#N)cnn2c1=O (configuration not stated)	
		CC(C)c1c(-c2ccccc2)[nH]c2c(C#N)cnn2c1=O	pKa [20]: 6
29.3		N#Cc1cnn2c(=O)c(Br)c(-c3ccccc3)[nH]c12	
28.9		CC(C)c1c(-c2cccc(OC(F)(F)F)c2)[nH]c2c(C#N)cnn2c1=O	

SMILES	IC50 [1] [nM]	EC50 [2] [nM]	also measured
C=C(C)c1c(-c2ccccc2)[nH]c2c(C#N)cnn2c1=O	24.7		
COc1cc(-c2[nH]c3c(C#N)cnn3c(=O)c2C(C)C)ccn1	31.6		
CC(C)c1c(-c2cccnc2)[nH]c2c(C#N)cnn2c1=O	12.3	9300	
